Reference: patent publication US20040142393A1, “Methods of use of compounds with preptin function” (priority 2002, published 2004)

Assays:
NIH-3T3 fibroblast cells = experiment: Stimulation of proliferation of NIH-3T3 cells (3H-thymidine uptake); assay type: cell-based; details: 10, 50, 100 and 500 nM preptin; FIG. 1
Protocol: NIH-3T3 cells may be used for various purposes including research regarding mitogenicity investigations. See, e.g., Buergisser et al. (1990). BiochemBiophys Res Comm 169(3): 832-839; Burgisser et al. (1991). J Biol. Chem 266(2): 1029-33; Yang et al. (1996). Endocrinol 137(7): 2766-2773; Geddes et al. (2001). Prot Engin 14(1): 61-65. NIH-3T3 cells were seeded in 24 well plates at a density of 3×10^4 cells/well. Cells were grown at 37° C. for 24 hours in high glucose DMEM (supplemented with 30 mM sodium hydrogen carbonate, 2 mM L-glutamine, 10^5 IU/l penicillin, 0.01% streptomycin sulphate) and 10% fetal calf serum, after which time they were serum starved for 24 hours in high DMEM and 0.2% BSA. […] This alkaline cell lysate was then neutralized with 200 μl of 0.2M HCl before 300 μl aliquots were mixed with 2 ml of Starscint scintillation fluid, and counted on a scintillation counter.
One method of measuring cell proliferation is via the incorporation of labeled nucleotides (e.g., [3H]-thymidine) into- newly synthesized DNA during cell division. For example, one of the most familiar and widely used methods for quantifying cell proliferation is the measurement of tritiated thymidine ([3H]-thymidine) incorporation. […]

INS-1E β-cells = experiment: Stimulation of proliferation of INS-1E β-cells (3H-thymidine uptake); assay type: cell-based; details: general statement; test with 10 nM rat preptin in INS-1E cells, FIG. 2
Protocol: INS-1E cells were seeded in 24 well plates at a density of 2×10^5 cells/well. Cells were grown at 37° C. for 24 hours in modified RPMI-1640 (GIBCO R-1383 Lot108H83032; supplemented with 23.8 mM sodium hydrogen carbonate, 2 mM L-glutamine, 10 mM HEPES, 50 μM β-Mercaptoethanol, 1 mM Sodium Pyruvate, 10^5 IU/l penicillin, 0.01% streptomycin sulphate) and 10% fetal calf serum, after which time they were serum starved for 24 hours in modified RPMI-1640. The serum free medium was then replaced with 500 μl of RPMI-1640 containing the following:
0% fetal calf serum (negative control), 10% fetal calf serum (positive control), 10 nM of rat preptin (rPreptin 10 nM), 10 nM of human GLP-1 (hGLP-1 10 nM), 10 nM of human IGF-II (hIGF-II 10 nM), and cells were incubated for a further 18 hours before the addition of 5 μCi of ^3H-thymidine to each well. After a further 6 hours incubation, medium was aspirated and cells were washed twice with cold PBS, once with cold 5% TCA, and twice with cold 100% ethanol. Plates were then air-dried for 30 minutes before cells were solubilized with 400 μl of 0.5M NaOH. This alkaline c ell lysate was then neutralized with 400 μl of 0.5M HCl before 500 μl aliquots were mixed with 2 ml of Starscint scintillation fluid, and counted on a scintillation counter. […]

insulin secretion = details: Buchanan et al. (2001) Biochem. J. 360: 431-439; cited from earlier work

preptin: peptide of 34 amino acids, Formula (I); corresponds to Asp69-Leu102 of proinsulin-like growth factor II (DVSTPPTVLPDNFPRYPVGKFFQYDTWKQSTQRL; Preptin; UniProt P01344 93-126, looked up)
effect on the proliferation of NIH-3T3 fibroblast cells (tritiated thymidine uptake) (NIH-3T3 fibroblast cells): dose dependent effect | proliferation of pancreatic islet β-cells (INS-1E β-cells): stimulate proliferation | effect on insulin secretion (insulin secretion): enhance, but not initiate, insulin secretion
